Structures are written as SMILES. ≈ marks a conversion by molar mass, not a printed value. Like-named read-outs stand apart in the source and are kept apart here.

Assay [1] deals with urease. The note with it: cited from earlier work.
The target of assay [2] is T1, urease (Canavalia ensiformis, UniProt P07374). Briefly: biochemical. It counts as biochemical, jack bean. Conditions: for improvement in potency compared to thiourea: ratio of urease IC50 versus thiourea (positive control). On the procedure: In vitro anti-urease activity of synthesized compounds, 8a-n were performed based on the […] method against urease compared with thiourea as the reference inhibitor.
T1 sequence (P07374 whole entry, looked up): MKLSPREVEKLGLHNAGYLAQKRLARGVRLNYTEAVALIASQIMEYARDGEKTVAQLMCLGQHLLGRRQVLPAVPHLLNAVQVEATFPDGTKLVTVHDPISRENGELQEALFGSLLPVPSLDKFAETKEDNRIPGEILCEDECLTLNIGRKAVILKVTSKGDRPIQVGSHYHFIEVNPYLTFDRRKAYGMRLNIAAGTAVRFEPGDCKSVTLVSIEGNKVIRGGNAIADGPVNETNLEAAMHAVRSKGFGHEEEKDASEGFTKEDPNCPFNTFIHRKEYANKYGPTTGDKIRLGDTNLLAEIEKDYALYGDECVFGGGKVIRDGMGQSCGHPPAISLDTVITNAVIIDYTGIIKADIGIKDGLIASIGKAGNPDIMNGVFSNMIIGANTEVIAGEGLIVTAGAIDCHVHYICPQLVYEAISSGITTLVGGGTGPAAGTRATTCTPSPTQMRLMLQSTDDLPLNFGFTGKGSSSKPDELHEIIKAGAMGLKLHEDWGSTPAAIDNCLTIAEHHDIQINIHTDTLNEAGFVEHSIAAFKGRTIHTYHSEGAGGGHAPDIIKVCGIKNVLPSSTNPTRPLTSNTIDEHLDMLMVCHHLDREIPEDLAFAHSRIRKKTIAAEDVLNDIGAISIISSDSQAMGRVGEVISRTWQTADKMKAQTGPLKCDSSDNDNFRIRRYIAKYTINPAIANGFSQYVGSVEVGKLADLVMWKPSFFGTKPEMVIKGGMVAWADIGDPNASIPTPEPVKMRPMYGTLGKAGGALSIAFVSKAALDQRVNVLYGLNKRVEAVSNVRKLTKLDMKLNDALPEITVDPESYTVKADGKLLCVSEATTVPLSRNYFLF
Urease inhibition effects of the synthesized compounds were determined according to the previously reported procedure[47]–[49]. 100 μL of the synthesized compounds at different concentrations was added to 850 μL of urea as substrate and 15 μL urease (0.135 units dissolved in PBS, pH 7.4). After 30 min, to 100 μL of the incubated solution, 500 μL solution I (5.0 g phenol and 25.0 mg sodium nitroprusside in 500 mL water) was added followed by the addition of 500 μL of solution II (2.5 g sodium hydroxide, 4.2 mL sodium hypochlorite, and 5% chlorine in 500 mL water) which was further incubated at 37 °C for 30 min. The absorbance was determined by measuring indophenols at 625 nm. Thiourea was used as the standard inhibitor for urease. The IC50 values for all synthesized compounds were calculated using GraphPad Prism software (GraphPad Software, Inc., San Diego, CA).

The test system of assay [3] is clinical isolate of Proteus vulgaris. Briefly: Antimicrobial activity, microbroth dilution (CLSI). The format is cell-based. Conditions: tested 1 to 512 μg/ml. On the procedure: (§1) The antimicrobial activity of compounds against the microorganisms including C. neoformans (H99), and clinical isolate of P.vulgaris was assessed using the microbroth dilution method, as recommended by the Clinical and Laboratory Standards Institute (CLSI) (M07-A9 for bacteria; M27-A3 for yeasts). The compounds were diluted, and stock solutions of 20 mg/ml in DMSO were prepared. Mueller–Hinton Broth (HiMedia) and RPMI-1640 (Sigma) were prepared as recommended for antimicrobial susceptibility testing of bacterial and fungal strains, respectively. Two-fold dilutions were made in the range of 1–512 μg/ml for tested compounds. The microbroth dilution test was accomplished using a 96-well microtiter plate, containing growth control (yeast culture in broth media) and sterility control (broth media without fungal culture). The antimicrobial susceptibility test was accomplished by adding a cell suspension adjusted to the 0.5 McFarland standard (1–2 × 10^8 CFU/mL for bacterial strains; 1−5 × 10^6 cells/ml for yeast) to different concentrations of tested compounds. […] All experiments were performed in duplicates.
A general note: Broth dilution looks for growth in wells or tubes with falling amounts of substance.

For assay [4], the system named is Cryptococcus neoformans (H99). Briefly: Antimicrobial activity, microbroth dilution (CLSI). The format is cell-based. Conditions: tested 1 to 512 μg/ml. The procedure: as §1
For assay [5], the system named is C. neoformans (H99). Description: Anti-ureolytic activity, colorimetric microdilution in urea broth. It counts as cell-based. The note with it: Cryptococcus neoformans, 72 h; 560 nm, after three days; read-out: IC50 (µg/ml) of C. neoformans (anti-ureolytic effect). On the procedure:
(§2) The colorimetric microdilution technique using urea broth media (Merck, supplemented with glucose; pH = 6 for C. neoformans) was used to examine the urolytic activity of C. neoformans (H99), and clinical isolate of P.vulgaris treated with tested substances. Compounds in the concentration range of 1–512 μg/mL were exposed to ureolytic microorganisms, and the color of the medium was evaluated visually and spectroscopically at 560 nm after three days for C. neoformans and 24 h for P. vulgaris. The positive control, which included ureolytic bacteria but no drugs, changed color from yellow to dark pink or magenta. This shifts, allowing the determination of the inhibitory activity of compounds against urease activity of organisms even without a microtiter plate reader[57],[58].

Assay [6] deals with clinical isolate of P.vulgaris. The assay is described as above. The note with it: Proteus vulgaris; 560 nm, after 24 h; read-out: IC50 (µg/ml) of P. vulgaris (anti-ureolytic effect). The format is cell-based. On the procedure:
as §2

Assay [7] has as its target T1, urease. Description: Kinetic study of urease inhibition (Lineweaver–Burk). The format is biochemical, jack bean. On the procedure: The mechanism of urease inhibition was investigated by enzyme kinetics, following the similar procedure of the urease inhibition assay. Lineweaver–Burk graphics were used to estimate the type of inhibition.
The kinetic study for the inhibition of urease by compound 8h was carried out using four different concentrations of inhibitor. For the kinetic study of urease, compound 8h was used at the concentrations of 0, 1, 2, and 4 μM. The Lineweaver–Burk reciprocal plot was constructed by plotting 1/V against 1/[S] at variable concentrations of the substrate urea (3.12–100 mM). The inhibition constant Ki was calculated by the plot of slopes versus the corresponding concentrations of the compound 8h.

In assay [8] the test system is H. pylori. On the set-up: method as in PMID 10394014. Conditions: cited from earlier work.

As for `O=C(Cn1c(Cc2ccc(Cl)cc2)nc2ccccc2c1=O)N/N=C/c1ccco1` [A], the “IC50 (urease)” value in assay [1] (2,3-disubstituted quinazolin-4(3H)-ones, Fig. 1A) was 1.55 ± 0.11 µg/mL (≈ 3.68 µM). In the case of `CCc1nc2ccccc2c(=O)n1CC(=O)NNC(=O)c1cc2cc(Br)ccc2oc1=O` [B], in assay [1] (quinazolinone-coumarin derivatives, Fig. 1B), the “IC50 (urease)” value is 1.26 ± 0.07 µg/mL (≈ 2.53 µM). Consider `CCNc1nnc(Cn2c(Cc3ccc(F)cc3)nc3ccccc3c2=O)s1` [C], for which the “IC50 (urease)” value in assay [1] (quinazolin-4(3H)-ones, Fig. 1C) is 1.88 ± 0.17 µg/mL (≈ 4.75 µM). For the molecule `O=C(CSc1nc2ccccc2c(=O)n1-c1ccccc1)Nc1ncc([N+](=O)[O-])s1` [Compound 8a, N-(5-nitrothiazol-2-yl)-2-((4-oxo-3-phenyl-3,4-dihydroquinazolin-2-yl)thio)acetamide], in assay [2], the IC50 came to 4.72 ± 0.26 µM and the “improvement in potency compared to thiourea” value is on record as “around fivefold”.

The molecule `O=C(CSc1nc2ccccc2c(=O)n1-c1ccc(Cl)cc1)Nc1ncc([N+](=O)[O-])s1` [Compound 8b, 2-((3-(4-chlorophenyl)-4-oxo-3,4-dihydroquinazolin-2-yl)thio)-N-(5-nitrothiazol-2-yl)acetamide] came in with an IC50 in assay [2] of 2.34 ± 0.19 µM. For the molecule `O=C(CSc1nc2ccccc2c(=O)n1-c1ccc(Br)cc1)Nc1ncc([N+](=O)[O-])s1` [Compound 8c, 2-((3-(4-bromophenyl)-4-oxo-3,4-dihydroquinazolin-2-yl)thio)-N-(5-nitrothiazol-2-yl)acetamide], the minimal inhibitory concentration (MIC) in assay [3] and in assay [4] was over 512 µg/mL throughout. Besides, the IC50 turned out to be 174 ± 4.9 µg/mL (≈ 335 µM) in assay [5], 383 ± 5.1 µg/mL (≈ 739 µM) in assay [6] and 2.22 ± 0.09 µM in assay [2]. Consider `COc1ccc(-n2c(SCC(=O)Nc3ncc([N+](=O)[O-])s3)nc3ccccc3c2=O)cc1` [Compound 8d, 2-((3-(4-methoxyphenyl)-4-oxo-3,4-dihydroquinazolin-2-yl)thio)-N-(5-nitrothiazol-2-yl)acetamide], for which, in assay [2], the IC50 was 2.78 ± 0.32 µM. In turn, `O=C(CSc1nc2ccccc2c(=O)n1Cc1ccccc1)Nc1ncc([N+](=O)[O-])s1` [Compound 8e, 2-((3-benzyl-4-oxo-3,4-dihydroquinazolin-2-yl)thio)-N-(5-nitrothiazol-2-yl)acetamide] came in with an IC50 in assay [2] of 3.83 ± 0.17 µM. In assay [2], `Cc1ccc(Cn2c(SCC(=O)Nc3ncc([N+](=O)[O-])s3)nc3ccccc3c2=O)cc1` [Compound 8f, 2-((3-(4-methylbenzyl)-4-oxo-3,4-dihydroquinazolin-2-yl)thio)-N-(5-nitrothiazol-2-yl)acetamide] gave an IC50 of 3.5 ± 0.28 µM.

For `O=C(CSc1nc2ccccc2c(=O)n1Cc1cccnc1)Nc1ncc([N+](=O)[O-])s1` [Compound 8g, N-(5-nitrothiazol-2-yl)-2-((4-oxo-3-(pyridin-3-ylmethyl)-3,4-dihydroquinazolin-2-yl)thio)acetamide], the MIC in assay [3] and in assay [4] was over 512 µg/mL throughout. Also, the IC50 in assay [6] is over 512 µg/mL; in assay [2] it was 2.5 ± 0.37 µM. `O=C(CSc1nc2ccccc2c(=O)n1CCc1ccccc1)Nc1ncc([N+](=O)[O-])s1` [Compound 8h, N-(5-nitrothiazol-2-yl)-2-((4-oxo-3-phenethyl-3,4-dihydroquinazolin-2-yl)thio)acetamide]: the MIC in assay [3] and in assay [4] was over 512 µg/mL each time. The IC50 in assay [5] turned out to be 129 ± 5.3 µg/mL (≈ 277 µM); in assay [6] it was 172 ± 8.7 µg/mL (≈ 369 µM); in assay [2], 2.22 ± 0.44 µM. Further, in assay [7], the affinity, expressed as Ki, was 1.99 µM. Moreover, in assay [7] (Lineweaver–Burk plot), the “inhibition pattern against urease” value is “uncompetitive”. In addition, the “improvement in potency compared to thiourea” value in assay [2] is “ten-fold”. In assay [2], `CCCn1c(SCC(=O)Nc2ncc([N+](=O)[O-])s2)nc2ccccc2c1=O` [Compound 8i, N-(5-nitrothiazol-2-yl)-2-((4-oxo-3-propyl-3,4-dihydroquinazolin-2-yl)thio)acetamide] yielded an IC50 of 4.26 ± 0.46 µM.

As to `CC(C)n1c(SCC(=O)Nc2ncc([N+](=O)[O-])s2)nc2ccccc2c1=O` [Compound 8j, 2-((3-isopropyl-4-oxo-3,4-dihydroquinazolin-2-yl)thio)-N-(5-nitrothiazol-2-yl)acetamide], in assay [2], the IC50 stood at 6.04 ± 0.57 µM.

In turn, `CCCCn1c(SCC(=O)Nc2ncc([N+](=O)[O-])s2)nc2ccccc2c1=O` [Compound 8k, 2-((3-butyl-4-oxo-3,4-dihydroquinazolin-2-yl)thio)-N-(5-nitrothiazol-2-yl)acetamide] returned an IC50 in assay [2] of 3.02 ± 0.12 µM.

`CC(C)Cn1c(SCC(=O)Nc2ncc([N+](=O)[O-])s2)nc2ccccc2c1=O` [Compound 8l, 2-((3-isobutyl-4-oxo-3,4-dihydroquinazolin-2-yl)thio)-N-(5-nitrothiazol-2-yl)acetamide]: the IC50 in assay [2] stood at 8.43 ± 0.61 µM. Consider `C=CCn1c(SCC(=O)Nc2ncc([N+](=O)[O-])s2)nc2ccccc2c1=O` [Compound 8m, 2-((3-allyl-4-oxo-3,4-dihydroquinazolin-2-yl)thio)-N-(5-nitrothiazol-2-yl)acetamide], for which, in assay [2], the IC50 was determined as 5.46 ± 0.38 µM. In assay [2], `O=C(CSc1nc2ccccc2c(=O)n1C1CCCC1)Nc1ncc([N+](=O)[O-])s1` [Compound 8n, 2-((3-cyclopentyl-4-oxo-3,4-dihydroquinazolin-2-yl)thio)-N-(5-nitrothiazol-2-yl)acetamide] displayed an IC50 of 2.96 ± 0.45 µM. On to `Cc1cnc(NC(=O)CSc2nnc(-c3cccc([N+](=O)[O-])c3)o2)s1` [F], for which the IC50 in assay [1] (thiazolbenzamide, Fig. 1F) was 2.17 ± 0.41 µM. As for `CC(=O)Oc1ccccc1C(=O)Nc1ncc([N+](=O)[O-])s1` [Nitazoxanide], in assay [8], the “MIC50 against H. pylori” value was 4 µg/mL (≈ 13 µM) and the “MIC90 against H. pylori” value was 8 µg/mL (≈ 26 µM).

Consider `NC(N)=S` [Thiourea, reference compound], for which the “IC50 (urease)” value in assay [1] (quinazolin-4(3H)-ones, Fig. 1C) is 15.06 µg/mL (≈ 198 µM). For the same molecule, the IC50 in assay [2] (mean ± standard error of three independent experiments, read-out: IC50 (urease inhibitory activity)) stood at 22.5 ± 0.44 µM.

For the molecule `O=C(Nc1ncc([N+](=O)[O-])s1)c1ccccc1O` [Tizoxanide], in assay [8], the “MIC50 against H. pylori” value was 4 µg/mL (≈ 15.1 µM) and the “MIC90 against H. pylori” value is 8 µg/mL (≈ 30.2 µM).

The values above are taken from paper PMC8821706, “Design and synthesis of novel nitrothiazolacetamide conjugated to different thioquinazolinone derivatives as anti-urease agents” (Scientific Reports, 2022).
